The values that follow come from US20110015162A1, “15,16-Methylene-17-hydroxy-19-nor-21-carboxylic acid-steroid Y-lactone derivative, use thereof and medicinal products containing the derivative” (Bayer Schering Pharma Aktiengesellschaft, priority 2007, published 2011).

Usually IC50 stands for the concentration at which inhibition is half-maximal.

The target in assay [1] is T1, mineralocorticoid receptor (Homo sapiens, UniProt P08235).
T1 sequence (P08235 1-984): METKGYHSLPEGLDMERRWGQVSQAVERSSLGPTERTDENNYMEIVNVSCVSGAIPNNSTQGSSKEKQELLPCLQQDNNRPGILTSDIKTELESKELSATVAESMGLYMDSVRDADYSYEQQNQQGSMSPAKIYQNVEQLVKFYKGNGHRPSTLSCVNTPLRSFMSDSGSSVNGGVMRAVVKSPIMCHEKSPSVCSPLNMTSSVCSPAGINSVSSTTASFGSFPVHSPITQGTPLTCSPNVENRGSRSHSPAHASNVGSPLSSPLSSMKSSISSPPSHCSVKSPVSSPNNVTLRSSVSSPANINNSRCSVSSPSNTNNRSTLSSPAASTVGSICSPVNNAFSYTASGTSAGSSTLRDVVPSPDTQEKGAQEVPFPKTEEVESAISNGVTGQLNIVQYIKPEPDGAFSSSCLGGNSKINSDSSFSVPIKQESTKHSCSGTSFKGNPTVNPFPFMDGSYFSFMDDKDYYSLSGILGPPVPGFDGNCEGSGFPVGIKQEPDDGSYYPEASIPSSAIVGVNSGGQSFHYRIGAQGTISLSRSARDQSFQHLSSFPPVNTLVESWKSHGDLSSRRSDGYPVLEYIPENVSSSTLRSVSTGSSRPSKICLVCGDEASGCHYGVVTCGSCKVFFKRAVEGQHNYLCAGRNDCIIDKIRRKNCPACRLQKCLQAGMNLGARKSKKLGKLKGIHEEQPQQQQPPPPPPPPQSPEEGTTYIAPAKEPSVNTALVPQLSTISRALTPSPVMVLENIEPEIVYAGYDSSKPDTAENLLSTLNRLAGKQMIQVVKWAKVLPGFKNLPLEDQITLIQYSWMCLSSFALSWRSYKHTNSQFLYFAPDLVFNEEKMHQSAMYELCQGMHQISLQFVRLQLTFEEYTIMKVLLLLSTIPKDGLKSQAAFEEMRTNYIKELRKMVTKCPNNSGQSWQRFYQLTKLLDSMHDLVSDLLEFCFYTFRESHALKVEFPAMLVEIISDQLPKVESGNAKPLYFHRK
Nature of the assay: Antimineralocorticoid action by transactivation test (MDCK reporter cells).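 On Emax: percent inhibition of the aldosterone-stimulated reporter signal.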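 On Mineralocorticoid receptor Antagonism efficacy: percent inhibition of the aldosterone-stimulated reporter signal.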 Also noted: expressed in transfected cells; host or cells: MDCK cells. To be noted: for Emax: read-out: Mineralocorticoid receptor Antagonism efficacy. It counts as cell-based. In short, it runs like this:
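MDCK reporter cells expressing human mineralocorticoid receptor, transiently carrying luciferase under a steroid hormone-responsive promoter.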

In another assay the target is T2, progesterone receptor (Homo sapiens, UniProt P06401).
T2 construct: made in house; host or cells: Hi5 insect cells (cytosol)
T2 sequence (P06401 1-933): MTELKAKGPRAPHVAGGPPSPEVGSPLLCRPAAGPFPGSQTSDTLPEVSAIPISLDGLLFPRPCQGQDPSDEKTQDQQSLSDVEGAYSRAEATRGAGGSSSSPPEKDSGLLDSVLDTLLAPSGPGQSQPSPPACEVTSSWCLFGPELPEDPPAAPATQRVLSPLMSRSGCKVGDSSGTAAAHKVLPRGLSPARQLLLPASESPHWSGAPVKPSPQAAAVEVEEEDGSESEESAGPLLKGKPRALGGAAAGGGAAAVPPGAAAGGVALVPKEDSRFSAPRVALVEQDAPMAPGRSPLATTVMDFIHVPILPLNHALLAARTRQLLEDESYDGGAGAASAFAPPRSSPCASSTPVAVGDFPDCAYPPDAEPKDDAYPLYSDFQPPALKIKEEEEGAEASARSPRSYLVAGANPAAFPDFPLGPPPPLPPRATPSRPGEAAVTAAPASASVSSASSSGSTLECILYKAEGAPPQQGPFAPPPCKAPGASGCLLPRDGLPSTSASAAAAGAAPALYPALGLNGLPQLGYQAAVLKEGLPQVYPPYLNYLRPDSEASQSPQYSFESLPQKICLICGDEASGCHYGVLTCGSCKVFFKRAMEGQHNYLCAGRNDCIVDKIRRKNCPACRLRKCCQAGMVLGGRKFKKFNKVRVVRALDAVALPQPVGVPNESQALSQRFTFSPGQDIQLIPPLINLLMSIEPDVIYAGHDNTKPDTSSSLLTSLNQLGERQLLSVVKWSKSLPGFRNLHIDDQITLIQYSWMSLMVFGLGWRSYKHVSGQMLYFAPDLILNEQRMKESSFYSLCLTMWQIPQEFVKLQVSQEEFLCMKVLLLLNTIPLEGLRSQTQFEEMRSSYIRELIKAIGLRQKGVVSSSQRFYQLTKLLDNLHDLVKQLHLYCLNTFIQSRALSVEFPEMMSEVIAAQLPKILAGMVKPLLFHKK
Nature of the assay: Progesterone receptor binding test. The settings on record: for Progesterone receptor (PR) Competition factor: CF 1 = affinity of progesterone, CF >1 lower affinity, <1 higher affinity; for CF PR/CF MR: ratio of competition factors CF(PR) and CF(MR). As to the method:
1. Progesterone Receptor Binding Test:
Using cytosol from progesterone receptor-expressing insect cells (Hi5), competitive binding to the progesterone receptor was determined from the ability to displace ^3H-progesterone as reference substance from the receptor.

Like-named read-outs stand apart in the source and are kept apart here.

For `C[C@]12CC[C@H]3[C@@H](C[C@@H](CO)C4=CC(=O)CC[C@@H]43)[C@@H]1[C@@H]1C[C@@H]1[C@@]21C=CC(=O)O1` [Example 21, 17β-Hydroxy-6β-hydroxymethylene-15β,16β-methylene-19-nor-17α-pregna-4,20(Z)-dien-3-one-21-carboxylic acid γ-lactone], the IC50 came to 160 nM in assay [1] (MDCK cells, with 1 nM aldosterone, read-out: Mineralocorticoid receptor Antagonism IC50) and 4800 nM on progesterone receptor (displacement of 3H-progesterone, cytosol from PR-expressing insect cells (Hi5), read-out: Progesterone receptor (PR) IC50). Also, the Emax in assay [1] (MDCK cells, with 1 nM aldosterone) stood at 68%. Besides, at progesterone receptor, the “Progesterone receptor (PR) Competition factor” value (“Progesterone receptor” below) came to 159.27.

In turn, `C[C@]12CC[C@H]3[C@@H](CC4(CC4)C4=CC(=O)CC[C@@H]43)[C@@H]1[C@@H]1C[C@@H]1[C@@]21C=CC(=O)O1` [Example 22, 6,6-(1,2-Ethanediyl)-17β-hydroxy-15β,16β-methylene-19-nor-17α-pregna-4,20(Z)dien-3-one-21-carboxylic acid γ-lactone] showed an IC50 in assay [1] of 49 nM. Besides, the Emax in assay [1] (MDCK) is 91.2%. Besides, at progesterone receptor, the IC50 was 30 nM, the “Progesterone receptor” value was 1.04 and the “CF PR/CF MR” value is listed as 1.30.

In turn, `C[C@@H]1CC2=CC(=O)CC[C@@H]2[C@H]2CC[C@@]3(C)[C@@H]([C@@H]4C[C@@H]4[C@@]34C=CC(=O)O4)[C@@H]21` [Example 23A, 17β-Hydroxy-7α-methyl-15β,16β-methylene-19-nor-17α-pregna-4,20(2)-dien-3-one-21-carboxylic acid γ-lactone] displayed an IC50 in assay [1] of 290 nM. The Emax in assay [1] (MDCK) was determined as 105%. Further, at progesterone receptor, the IC50 was 120 nM, the “Progesterone receptor” value worked out at 3.79 and the “CF PR/CF MR” value is 1.99.

Compound `CC[C@@H]1CC2=CC(=O)CC[C@@H]2[C@H]2CC[C@@]3(C)[C@@H]([C@@H]4C[C@@H]4[C@@]34C=CC(=O)O4)[C@H]12` [Example 24A, 7α-Ethyl-17β-hydroxy-15β,16β-methylene-19-nor-17α-pregna-4,20(Z)-dien-3-one-21-carboxylic acid γ-lactone] came in with an IC50 in assay [1] of 160 nM. Further, the Emax in assay [1] (MDCK) amounted to 81.1%. In addition, on progesterone receptor, the IC50 came to 1300 nM, the “Progesterone receptor” value was 41.55 and the “CF PR/CF MR” value turned out to be 21.87.

Take `C=C[C@@H]1CC2=CC(=O)CC[C@@H]2[C@H]2CC[C@@]3(C)[C@@H]([C@@H]4C[C@@H]4[C@@]34C=CC(=O)O4)[C@@H]21` [Example 25A, 17β-Hydroxy-15β,16β-methylene-7α-vinyl-19-nor-17α-pregna-4,20(Z)-dien-3-one-21-carboxylic acid γ-lactone]: in assay [1], the IC50 worked out at 910 nM. For the same compound, the Emax in assay [1] (MDCK) came out at 84.1%. Also, at progesterone receptor, the concentration for half-maximal inhibition (IC50) is 150 nM, the “Progesterone receptor” value was 6.14 and the “CF PR/CF MR” value is reported as 0.65.

On to `C[C@]12CC[C@H]3[C@@H](CCC4=C(Cl)C(=O)CC[C@@H]43)[C@@H]1[C@@H]1C[C@@H]1[C@@]21C=CC(=O)O1` [Example 27, 4-Chloro-17β-hydroxy-15β,16β-methylene-19-nor-17α-pregna-4,20(Z)-dien-3-one-21-carboxylic acid γ-lactone], for which the half-inhibitory concentration (IC50) in assay [1] was 1000 nM. In addition, the Emax in assay [1] (MDCK) worked out at 5%. Further, at progesterone receptor, the half-maximal inhibitory concentration (IC50) was found to be 2900 nM, the “Progesterone receptor” value stood at 101.93 and the “CF PR/CF MR” value worked out at 2.17.
